A value given as a limit tells only on which side of the number the result lay.

The results in this text go back to patent US9394273B2, “Therapeutic prostaglandin receptor agonists” (Allergan, Inc., priority 2014, dated 2016).

One assay addresses EP3 (Homo sapiens (Human), UniProt P43115). The experiment in a line: Other receptors FLIPR: EP3. The class given is cell-based. As to conditions: NA undefined in patent. The text has this: (§1) U.S. patent application publication No. 20070129552, published on Jun. 7, 2007, incorporated by reference herein, describes the methods used to obtain the in vitro data in Table 1 below.

Assay [1] deals with T1, EP2 (Homo sapiens (Human), UniProt P43116). In words: EP2 cAMP functional assay. In kind it is cell-based.
T1 sequence (P43116 whole entry): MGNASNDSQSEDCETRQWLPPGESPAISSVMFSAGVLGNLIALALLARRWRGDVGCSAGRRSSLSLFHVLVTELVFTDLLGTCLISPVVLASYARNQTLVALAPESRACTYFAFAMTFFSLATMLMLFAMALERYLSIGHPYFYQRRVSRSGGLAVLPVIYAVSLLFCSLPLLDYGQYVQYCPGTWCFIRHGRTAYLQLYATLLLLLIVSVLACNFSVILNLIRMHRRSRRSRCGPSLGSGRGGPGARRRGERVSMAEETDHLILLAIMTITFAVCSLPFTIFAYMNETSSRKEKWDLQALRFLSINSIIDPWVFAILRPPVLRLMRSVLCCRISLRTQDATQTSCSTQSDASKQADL
Source text: as §1

Assay [2] deals with T2, prostaglandin EP4 receptor (Homo sapiens (Human), UniProt P35408). The experiment in a line: EP4 cAMP functional assay. In kind it is cell-based.
T2 sequence (P35408 whole entry): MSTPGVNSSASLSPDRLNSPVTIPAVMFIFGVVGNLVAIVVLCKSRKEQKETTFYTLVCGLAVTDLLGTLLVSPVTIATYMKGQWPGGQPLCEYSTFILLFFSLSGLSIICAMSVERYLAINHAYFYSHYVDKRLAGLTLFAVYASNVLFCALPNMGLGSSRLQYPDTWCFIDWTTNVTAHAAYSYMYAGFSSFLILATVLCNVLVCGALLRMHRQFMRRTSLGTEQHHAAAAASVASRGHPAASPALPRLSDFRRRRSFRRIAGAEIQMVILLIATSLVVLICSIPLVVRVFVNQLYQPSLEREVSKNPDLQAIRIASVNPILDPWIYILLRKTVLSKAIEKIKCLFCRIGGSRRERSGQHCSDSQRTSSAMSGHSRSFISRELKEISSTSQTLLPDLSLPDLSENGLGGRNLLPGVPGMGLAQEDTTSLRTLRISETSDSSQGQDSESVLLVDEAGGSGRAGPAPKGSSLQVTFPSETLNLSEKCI
Source text: as §1

In assay [3] the target is T1, EP2. The experiment in a line: EP2 binding assay (Ki).
Source text: as §1

Assay [4] concerns the target T2, prostaglandin EP4 receptor. The experiment in a line: EP4 binding assay (Ki). As to conditions: read-out: EP4 Ki EC50.
Source text: as §1

The target in a further assay is TP (Homo sapiens (Human), UniProt P21731). The experiment in a line: Other receptors FLIPR: TP. In kind it is cell-based. To be noted: NA undefined in patent.
TP, sequence (P21731 whole entry): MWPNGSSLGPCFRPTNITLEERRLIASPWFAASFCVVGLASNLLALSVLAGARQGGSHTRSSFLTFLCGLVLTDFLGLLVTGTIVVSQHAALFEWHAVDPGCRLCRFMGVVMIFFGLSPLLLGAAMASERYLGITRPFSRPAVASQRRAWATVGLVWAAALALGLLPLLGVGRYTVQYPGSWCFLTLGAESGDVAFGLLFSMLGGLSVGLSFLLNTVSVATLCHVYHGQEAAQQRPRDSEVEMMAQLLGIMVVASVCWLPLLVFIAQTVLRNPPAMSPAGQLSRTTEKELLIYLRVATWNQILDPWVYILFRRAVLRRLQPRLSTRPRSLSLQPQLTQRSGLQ
Source text: as §1

EP3, sequence (P43115 whole entry): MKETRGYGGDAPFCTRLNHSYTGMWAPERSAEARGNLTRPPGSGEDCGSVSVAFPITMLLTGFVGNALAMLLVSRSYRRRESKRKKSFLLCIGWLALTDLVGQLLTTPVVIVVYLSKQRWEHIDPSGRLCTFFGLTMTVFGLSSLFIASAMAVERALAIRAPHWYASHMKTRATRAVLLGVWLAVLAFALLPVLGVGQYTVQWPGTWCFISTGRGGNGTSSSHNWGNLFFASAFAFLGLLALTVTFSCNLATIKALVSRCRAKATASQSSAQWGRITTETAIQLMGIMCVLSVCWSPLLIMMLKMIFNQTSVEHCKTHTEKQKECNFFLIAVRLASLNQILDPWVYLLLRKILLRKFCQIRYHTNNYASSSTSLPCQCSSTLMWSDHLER

For the compound `O=C(O)c1ccc(CC[C@H]2C(=O)CC[C@@H]2/C=C/C(O)Cc2cccc(F)c2F)cc1` (single isomer, unassigned) [Entry 26, (E)-4-(2-(2-(4-(2,3-difluorophenyl)-3-hydroxybut-1-en-1-yl)-5-oxocyclopentyl)ethyl)benzoic acid], the EC50 (usually the concentration needed to bring the measured effect to its halfway point) on EP3 was found to be 9950 nM; on EP2 [1], 8 nM; in assay [2], 0.2 nM. For the same compound, the results for the Ki (on EP2 [3]; in assay [4]) were 1240 nM and 2 nM, respectively.

Compound `O=C(O)c1ccc(CC[C@H]2C(=O)CC[C@@H]2/C=C/C(O)Cc2ccc3ccccc3c2)cc1` (single isomer, unassigned) [Entry 1] came in with a concentration giving a half-maximal response (EC50) in assay [2] of 1 nM. Moreover, the “EP2 Ki (nM)” value on EP2 [3] is listed as above 10K. The Ki – broadly, the dissociation constant of the complex between target and ligand, obtained from inhibition or displacement – in assay [4] turned out to be 0.8 nM.

In turn, `O=C(O)c1ccc(CC[C@H]2C(=O)CC[C@@H]2/C=C/C(O)Cc2ccc(F)c(F)c2)cc1` (single isomer, unassigned) [Entry 23, (E)-4-(2-(2-(4-(3,4-difluorophenyl)-3-hydroxybut-1-en-1-yl)-5-oxocyclopentyl)ethyl)benzoic acid] gave a 50% effective concentration (EC50) in assay [2] of 21 nM. For the same compound, the values for the Ki (at EP2 [3]; in assay [4]) were 9320 nM and 293 nM, respectively.

`O=C(O)c1ccc(CC[C@H]2C(=O)CC[C@@H]2/C=C/C(O)Cc2ccccc2F)cc1` (single isomer, unassigned) [Entry 22, (E)-4-(2-(2-(4-(2-fluorophenyl)-3-hydroxybut-1-en-1-yl)-5-oxocyclopentyl)ethyl)benzoic acid]: the EC50 on EP3 was 4670 nM; on EP2 [1], 8 nM; in assay [2] it was 0.3 nM. For the same compound, the figures for the Ki (at EP2 [3]; in assay [4]) were 1030 nM and 4 nM, respectively.

In the case of `O=C(O)c1ccc(CC[C@H]2C(=O)CC[C@@H]2/C=C/C(O)Cc2cccc(Br)c2)cc1` (single isomer, unassigned) [Entry 9, (E)-4-(2-(2-(4-(3-bromophenyl)-3-hydroxybut-1-en-1-yl)-5-oxocyclopentyl)ethyl)benzoic acid], on EP2 [1], the response was half-maximal at 278 nM (EC50). At EP2 [3], this compound showed a Ki of 1450 nM.

As to `O=C(O)c1ccc(CC[C@H]2C(=O)CC[C@@H]2/C=C/C(O)Cc2cccc(Br)c2)cc1` (single isomer, unassigned) [Entry 10, (E)-4-(2-(2-(4-(3-bromophenyl)-3-hydroxybut-1-en-1-yl)-5-oxocyclopentyl)ethyl)benzoic acid], the results for the EC50 at EP3, on EP2 [1] and at TP were 180 nM, 26 nM and 108 nM, respectively. For the same compound, the Ki on EP2 [3] is 947 nM.

Consider `O=C(O)c1ccc(CC[C@H]2C(=O)CC[C@@H]2/C=C/C(O)Cc2cc(F)ccc2F)cc1` (single isomer, unassigned) [Entry 28, (E)-4-(2-(2-(4-(2,5-difluorophenyl)-3-hydroxybut-1-en-1-yl)-5-oxocyclopentyl)ethyl)benzoic acid], for which the EC50 on EP3 was 5990 nM; at EP2 [1] it was 10 nM; in assay [2], 0.2 nM. In addition, the inhibition constant (Ki) on EP2 [3] came out at 1300 nM; in assay [4], 5 nM.

The compound `O=C(O)c1ccc(CC[C@H]2C(=O)CC[C@@H]2/C=C/C(O)Cc2ccc3ccccc3c2)cc1` (single isomer, unassigned) [Entry 2] returned an EC50 in assay [2] of 21 nM. Also, the “EP2 Ki (nM)” value on EP2 [3] is recorded as above 10K. Further, the Ki in assay [4] was found to be 10 nM.

Consider `O=C(O)c1ccc(CC[C@H]2C(=O)CC[C@@H]2/C=C/C(O)Cc2ccccc2F)cc1` (single isomer, unassigned) [Entry 21, (E)-4-(2-(2-(4-(2-fluorophenyl)-3-hydroxybut-1-en-1-yl)-5-oxocyclopentyl)ethyl)benzoic acid], for which the figures for the concentration for a half-maximal effect (EC50) (at EP2 [1]; in assay [2]) were 76 nM and 4 nM, respectively. In addition, the results for the Ki (on EP2 [3]; in assay [4]) were 2220 nM and 64 nM, respectively.

`COc1ccc2cc(CC(O)/C=C/[C@H]3CCC(=O)[C@@H]3CCc3ccc(C(=O)O)cc3)ccc2c1` (stereo partly drawn) [Entry 16, (E)-4-(2-(2-(3-hydroxy-4-(6-methoxynaphthalen-2-yl)but-1-en-1-yl)-5-oxocyclopentyl)ethyl)benzoic acid]: the midpoint of the response in assay [2], the EC50, lay at 728 nM. Also, at EP2 [3], the “EP2 Ki (nM)” value is on record as above 10K. In assay [4], the Ki amounted to 2660 nM.

For `O=C(O)c1ccc(CC[C@H]2C(=O)CC[C@@H]2/C=C/C(O)Cc2cccc(F)c2)cc1` (single isomer, unassigned) [Entry 5, (E)-4-(2-(2-(4-(3-fluorophenyl)-3-hydroxybut-1-en-1-yl)-5-oxocyclopentyl)ethyl)benzoic acid], the EC50 on EP2 [1] turned out to be 78 nM; in assay [2], 1 nM. The Ki at EP2 [3] is 3420 nM; in assay [4], 40 nM.

Take `O=C(O)c1ccc(CC[C@H]2C(=O)CC[C@@H]2/C=C/C(O)Cc2cccc(C(F)(F)F)c2)cc1` (single isomer, unassigned) [Entry 11, (E)-4-(2-(2-(3-hydroxy-4-(3-(trifluoromethyl)phenyl)but-1-en-1-yl)-5-oxocyclopentyl)ethyl)benzoic acid]: the concentration for a half-maximal effect (EC50) at EP2 [1] was determined as 1010 nM; in assay [2], 16 nM. Besides, the Ki at EP2 [3] turned out to be 3160 nM; in assay [4], 90 nM.

For the compound `O=C(O)c1ccc(CC[C@H]2C(=O)CC[C@@H]2/C=C/C(O)Cc2cccc(F)c2F)cc1` (single isomer, unassigned) [Entry 25, (E)-4-(2-(2-(4-(2,3-difluorophenyl)-3-hydroxybut-1-en-1-yl)-5-oxocyclopentyl)ethyl)benzoic acid], the half-maximal effective concentration (EC50) was 164 nM on EP2 [1] and 30 nM in assay [2]. The values for the Ki (on EP2 [3]; in assay [4]) were 3150 nM and 585 nM, respectively.

In assay [2], `COc1ccc2ccc(CC(O)/C=C/[C@H]3CCC(=O)[C@@H]3CCc3ccc(C(=O)O)cc3)cc2c1` (stereo partly drawn) [Entry 18, (E)-4-(2-(2-(3-hydroxy-4-(7-methoxynaphthalen-2-yl)but-1-en-1-yl)-5-oxocyclopentyl)ethyl)benzoic acid] had an EC50 of 2 nM. Also, the “EP2 Ki (nM)” value at EP2 [3] is above 10K. The Ki in assay [4] amounted to 9 nM.

For the compound `O=C(O)c1ccc(CC[C@H]2C(=O)CC[C@@H]2/C=C/C(O)Cc2ccc3ccsc3c2)cc1` (stereo partly drawn) [Entry 15, (E)-4-(2-(2-(4-(benzo[b]thiophen-6-yl)-3-hydroxybut-1-en-1-yl)-5-oxocyclopentyl)ethyl)benzoic acid], the EC50 on EP3 was determined as 67 nM; in assay [2] it was 0.5 nM. The compound also displayed an OTHER RECEPTORS FLIPR EC50 (nM): TP at TP below 10000 nM. For the same compound, the “EP2 Ki (nM)” value on EP2 [3] was above 10K. The inhibitory constant (Ki) in assay [4] is 41 nM.

On to `COc1cc2ccccc2cc1CC(O)/C=C/[C@H]1CCC(=O)[C@@H]1CCc1ccc(C(=O)O)cc1` (stereo partly drawn) [Entry 17, (E)-4-(2-(2-(3-hydroxy-4-(3-methoxynaphthalen-2-yl)but-1-en-1-yl)-5-oxocyclopentyl)ethyl)benzoic acid], for which the “EP2 Ki (nM)” value on EP2 [3] was above 10K. The inhibitory constant (Ki) in assay [4] came out at 4620 nM.

For the compound `O=C(O)c1ccc(CC[C@H]2C(=O)CC[C@@H]2/C=C/C(O)Cc2cc(F)ccc2F)cc1` (single isomer, unassigned) [Entry 27, (E)-4-(2-(2-(4-(2,5-difluorophenyl)-3-hydroxybut-1-en-1-yl)-5-oxocyclopentyl)ethyl)benzoic acid], the figures for the EC50 (on EP2 [1]; in assay [2]) were 125 nM and 18 nM, respectively. The values for the Ki (at EP2 [3]; in assay [4]) were 3630 nM and 457 nM, respectively.

Turning to `O=C(O)c1ccc(CC[C@H]2C(=O)CC[C@@H]2/C=C/C(O)Cc2cccc(C(F)(F)F)c2)cc1` (single isomer, unassigned) [Entry 12, (E)-4-(2-(2-(3-hydroxy-4-(3-(trifluoromethyl)phenyl)but-1-en-1-yl)-5-oxocyclopentyl)ethyl)benzoic acid], the EC50 on EP2 [1] was found to be 35 nM; on TP, 218 nM; in assay [2] it was 0.2 nM. In addition, the Ki on EP2 [3] was determined as 1310 nM; in assay [4] it was 1 nM.

In turn, `O=C(O)c1ccc(CC[C@H]2C(=O)CC[C@@H]2/C=C/C(O)Cc2ccc(F)cc2)cc1` (single isomer, unassigned) [Entry 19, (E)-4-(2-(2-(4-(4-fluorophenyl)-3-hydroxybut-1-en-1-yl)-5-oxocyclopentyl)ethyl)benzoic acid] returned a half-maximal effective concentration (EC50) in assay [2] of 38 nM. In addition, the Ki at EP2 [3] came out at 9290 nM; in assay [4], 902 nM.

With `O=C(O)c1ccc(CC[C@H]2C(=O)CC[C@@H]2/C=C/C(O)Cc2sc3ccccc3c2Cl)cc1` (single isomer, unassigned) [Entry 4, (E)-4-(2-(2-(4-(3-chlorobenzo[b]thiophen-2-yl)-3-hydroxybut-1-en-1-yl)-5-oxocyclopentyl)ethyl)benzoic acid], the “EP2 cAMP EC50 (nM)” value on EP2 [1] is above 10K. Moreover, in assay [2], a half-maximal response (EC50) required 186 nM. On EP2 [3], the “EP2 Ki (nM)” value is on record as above 10K. For the same compound, the inhibition constant (Ki) in assay [4] amounted to 603 nM.

Take `O=C(O)c1ccc(CC[C@H]2C(=O)CC[C@@H]2/C=C/C(O)Cc2sc3ccccc3c2Cl)cc1` (single isomer, unassigned) [Entry 3, (E)-4-(2-(2-(4-(3-chlorobenzo[b]thiophen-2-yl)-3-hydroxybut-1-en-1-yl)-5-oxocyclopentyl)ethyl)benzoic acid]: the “EP2 cAMP EC50 (nM)” value on EP2 [1] is given as above 10K. For the same compound, the midpoint of the response in assay [2], the EC50, lay at 1280 nM. In addition, on EP2 [3], the “EP2 Ki (nM)” value is above 10K. In addition, the Ki in assay [4] is 2310 nM.

With `O=C(O)c1ccc(CC[C@H]2C(=O)CC[C@@H]2/C=C/C(O)Cc2cccc(Cl)c2)cc1` (stereo partly drawn) [Entry 7, (E)-4-(2-(2-(4-(3-chlorophenyl)-3-hydroxybut-1-en-1-yl)-5-oxocyclopentyl)ethyl)benzoic acid], the EC50 at EP2 [1] is 123 nM; on TP it was 4830 nM; in assay [2] it was 2 nM. In addition, the Ki at EP2 [3] amounted to 2760 nM; in assay [4] it was 2 nM.
